Experiments:
apoTf = target: T1, apoTf (Homo sapiens, UniProt P02787); assay: Interaction with (apo)Tf: ligand displacement and binding of the intact complex (UV-vis, fluorescence, ultrafiltration); conditions: pH 7.40
T1 construct: purchased Sigma-Aldrich T2036
Method: Therefore, UV–vis and fluorescence emission spectra of InQ3 were recorded in the presence of increasing amounts of apoTf (Fig. 5a, b). After a short initial phase, the absorbance band of InQ3 is reduced gradually by the addition of the protein, while the development of the new band at lower wavelengths (at ca. 310 nm) refers to the liberation of HQ. Namely, there is a competition for In(III) ion between the ligand and the iron-binding sites of apoTf. Absorbance values depicted at 370 nm and 310 nm (Fig. 5c) saturate roughly to the corresponding values of the free ligand and outline a sigmoidal shape. Fluorescence intensity of the same sample set (Fig. 5b, d) was enhanced and moderately blue shifted (from λmax = 540 nm to 532 nm) until the addition of ca. 0.2 equiv. apoTf. […] Then, by the addition of more apoTf, intensities decreased and λmax shifted further to shorter wavelengths (527 nm). […] Based on this and the results of apoTf quenching (vide supra) protein binding of the non-dissociated complex is presumed. This is further supported by fluorescence lifetime measurements; where new lifetime components τ3 = 4.7 ± 0.2 ns and τ4 = 13.8 ± 0.4 ns appeared for InQ3 in the presence of 0.1 – 0.3 equiv. apoTf (after 1 min waiting time). […] Here, the sigmoid shape of the UV–vis absorbance was seen again (Fig. S5) and the shifted inflection point in comparison to the titration with apoTf underlines the lower In(III) binding capacity of Tf. […]
In the case of InD3, the absorbance bands of the metal complex and apoTf overlap in great extent, however, spectra can be deconvoluted to the spectra of InD3, deferiprone and apoTf (see Fig S6 for details), and molar fractions of the respective species can be calculated (Fig. 6). Ultrafiltration experiments were carried out as well for the InD3 – apoTf system and the non-protein bound LMM fractions were analyzed by UV–vis spectrophotometry (Fig. 6). […] The complex dissociated in line with the addition of apoTf and a practically quantitative displacement of deferiprone seems to take place by the addition of ca. 0.5 equiv. apoTf. […]

HSA and Tf = assay: Complex - HSA - Tf ternary systems (three-dimensional fluorescence and UV-vis); assay type: binding, human; conditions: pH 7.40; for metal ion Tf bound: 10 μM complex, HSA 5.2 equiv., Tf 0.32 equiv.; for dissociation of the complex: 212 μM HSA and 12.8 μM Tf (ratio 1:21.2:1.28)
Method: The reliability of UV–vis and fluorescence spectroscopic techniques in the characterization of the mode of interaction of In(III) complexes with HSA and (apo)Tf was proven in the former sections. Therefore, as a continuation three-dimensional fluorescence and UV–vis spectra were recorded for InQ3 and GaQ3 in the presence of both HSA and Tf (Figs. 7 and S7).
In these experiments, the applied HSA-to-Tf ratio corresponds to their physiological ratio in blood serum (630:38). Figure 8 depicts the intensity changes of the ternary system (complex and both proteins) for InQ3 at λEX = 367 nm and λEM = 530 nm in comparison to the respective binary systems (complex and only one type of protein). Apparently, albumin binding of the complex is indeed achieved in the ternary system, although to a lower extent compared to the InQ3 – HSA binary system, and the Tf binding of In(III) becomes more significant at higher protein concentrations. Consequently, the measured intensity reduces parallel with the decreasing (free and albumin bound) InQ3 concentration. […] Based on these spectra, InQ3 and GaQ3 are at least partly HSA-bound. However, minor dissociation of the complexes is evidenced by the UV–vis spectra (Fig. S7) even at this ratio that is more advanced for InQ3 than for GaQ3 (ca. 30% and 10% metal ion is Tf bound, respectively). The differences between the two complexes become more pronounced by getting closer to the physiologically relevant protein concentrations. In the presence of 212 μM HSA and 12.8 μM Tf (ratio: 1:21.2:1.28), the fluorescence of InQ3 is diminished, as most of the complex decomposes and In(III) is bound to Tf. […] To mimic the blood protein concentrations, three-times higher values would be needed; however, under that conditions fluorometric detection becomes inadequate due to the too high absorbance and light scattering of the samples.
Three-dimensional spectra were recorded for ternary systems containing InQ3 or GaQ3, HSA and Tf in the wavelength range λEX = 250 – 450 nm and λEM = 300 – 700 nm. All three-dimensional spectra were corrected by residual fluorescence of the proteins, inner filter effect and self-absorbance.

T1 sequence (P02787 20-698): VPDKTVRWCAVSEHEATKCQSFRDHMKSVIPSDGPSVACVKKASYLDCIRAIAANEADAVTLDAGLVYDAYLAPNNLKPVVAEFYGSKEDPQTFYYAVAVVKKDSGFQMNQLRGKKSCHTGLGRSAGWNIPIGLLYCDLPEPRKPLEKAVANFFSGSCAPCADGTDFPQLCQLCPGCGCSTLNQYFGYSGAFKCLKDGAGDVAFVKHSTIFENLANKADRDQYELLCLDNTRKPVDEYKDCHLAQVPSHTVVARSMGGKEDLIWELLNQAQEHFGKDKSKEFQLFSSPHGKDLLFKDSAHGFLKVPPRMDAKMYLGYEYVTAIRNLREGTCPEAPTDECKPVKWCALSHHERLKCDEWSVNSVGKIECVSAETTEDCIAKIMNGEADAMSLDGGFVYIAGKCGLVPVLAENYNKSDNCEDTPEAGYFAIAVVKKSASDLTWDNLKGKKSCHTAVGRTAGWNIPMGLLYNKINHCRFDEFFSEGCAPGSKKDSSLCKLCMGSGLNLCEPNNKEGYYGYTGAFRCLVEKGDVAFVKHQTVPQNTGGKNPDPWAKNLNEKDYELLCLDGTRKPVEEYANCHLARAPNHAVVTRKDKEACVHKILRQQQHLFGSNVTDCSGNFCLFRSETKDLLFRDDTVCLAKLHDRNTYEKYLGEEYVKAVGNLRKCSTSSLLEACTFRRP

Structure (SMILES): [Ga+3].[O-]c1cccc2cccnc12.[O-]c1cccc2cccnc12.[O-]c1cccc2cccnc12 [GaQ3, Tris(8-Quinolinolato)gallium(III), reference compound]
- binding via intermolecular interactions to apoTf (and Tf) (apoTf; UV–vis and fluorescence): no such binding was observed
- metal ion Tf bound (HSA and Tf): ~10%
- dissociation of the complex (HSA and Tf): 25%

Structure (SMILES): Cc1c([O-])c(=O)ccn1C.Cc1c([O-])c(=O)ccn1C.Cc1c([O-])c(=O)ccn1C.[In+3] [InD3]
- apoTf needed for practically quantitative displacement of the ligand (apoTf; UV–vis deconvolution and ultrafiltration): ca. 0.5 equiv.

Structure (SMILES): [In+3].[O-]c1cccc2cccnc12.[O-]c1cccc2cccnc12.[O-]c1cccc2cccnc12 [InQ3, Tris(8-Quinolinolato)indium(III)]
- metal ion Tf bound (HSA and Tf): ca. 30%
- dissociation of the complex (HSA and Tf): practically completely dissociated

Source: paper PMC8960621, “Solution speciation and human serum protein binding of indium(III) complexes of 8-hydroxyquinoline, deferiprone and maltol” (Journal of Biological Inorganic Chemistry, 2022)
